The record followed here is PubChem BioAssay (NCI).

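Step 1: Grow cells in 96-well plates. Step 2: Expose to compound for 48 hours at 5 concentrations. Step 3: Interpolate endpoints linearly; if unreached, use highest concentration. TGI: concentration producing complete growth inhibition.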

Among the test systems are ACHN renal; CAKI-1 renal; EKVX NSCLC; IGROV1 ovarian; OVCAR-4 ovarian; RXF 393 renal; SF-539 CNS; SNB-75 CNS; SK-MEL-5 melanoma; SK-OV-3 ovarian.
What all share (assay): NCI-60 cell line screen, 48 h

`O=C(Nc1cccc2c1[nH]c1c(-c3ccccc3)nccc12)c1ccccc1[N+](=O)[O-]`: the TGI is greater than 100 µM in the experiment on ACHN renal; 70.4 µM in the experiment on CAKI-1 renal; greater than 100 µM with EKVX NSCLC; greater than 100 µM in the experiment with IGROV1 ovarian; greater than 100 µM with OVCAR-4 ovarian; 90.2 µM in the experiment with RXF 393 renal. Further, the TGI in the experiment with SF-539 CNS was 97 µM; in the experiment with SNB-75 CNS it was greater than 100 µM.

In the case of `CC1C(OC2O[C@@H]3O[C@@]4(C)CC[C@H]5[C@H](C)CC[C@@H](C2C)[C@@]35O4)O[C@@H]2O[C@@]3(C)CC[C@H]4[C@H](C)CC[C@@H]1[C@@]24O3` (some centres undefined), the TGI in the experiment on ACHN renal, with CAKI-1 renal, in the experiment with EKVX NSCLC, with OVCAR-4 ovarian, in the experiment on SF-539 CNS and in the experiment with SK-MEL-5 melanoma was greater than 50 µM throughout. Also, the TGI in the experiment with SK-OV-3 ovarian and with SNB-75 CNS was greater than 50 µM each time.

Turning to `O=C(O)CCCc1ccc2ccccc2c1`, the TGI in the experiment with ACHN renal, in the experiment on CAKI-1 renal, with EKVX NSCLC, with IGROV1 ovarian, with OVCAR-4 ovarian and in the experiment on RXF 393 renal was greater than 100 µM in each case. Moreover, the TGI in the experiment on SF-539 CNS, in the experiment with SK-MEL-5 melanoma and in the experiment with SK-OV-3 ovarian was greater than 100 µM each time.

As to `O=C(C/C(=N/O)c1cc(-c2ccccc2)no1)c1ccccc1`, the TGI was greater than 100 µM in the experiment with ACHN renal; greater than 100 µM in the experiment on CAKI-1 renal; greater than 100 µM in the experiment on EKVX NSCLC; 86 µM in the experiment on IGROV1 ovarian; 65.8 µM with OVCAR-4 ovarian; 41.2 µM in the experiment on RXF 393 renal. Moreover, the TGI was 35 µM in the experiment on SF-539 CNS, greater than 100 µM in the experiment on SK-MEL-5 melanoma and 38.4 µM with SK-OV-3 ovarian.

Consider `COc1ccc2cc(-c3nc(N)nc(N4N=C(C)CC4(C)C)n3)c(=N)oc2c1`, for which the TGI is 31.8 µM in the experiment on ACHN renal; 38 µM with CAKI-1 renal; 67.2 µM in the experiment with EKVX NSCLC; 37.8 µM in the experiment on IGROV1 ovarian; 50.5 µM in the experiment with OVCAR-4 ovarian; 58.9 µM with RXF 393 renal. Further, the figures for the TGI in the experiment with SF-539 CNS, in the experiment on SK-MEL-5 melanoma and with SK-OV-3 ovarian were 30.2 µM, 30.1 µM and 53.9 µM, respectively.

Turning to `C=CCOC(=O)C1=C(CCC[C@@H](C)O[Si](C)(C)C(C)(C)C)N=C(N)N2[C@H](CCO)CC[C@@H]12`, the TGI was 40.1 µM in the experiment on ACHN renal; 26.1 µM with CAKI-1 renal; 23.2 µM in the experiment with OVCAR-4 ovarian; 24.9 µM in the experiment with SK-MEL-5 melanoma; 27.2 µM with SK-OV-3 ovarian; 32.5 µM in the experiment with SNB-75 CNS.

For `O=c1cn[nH]c(=S)n1/N=C/c1c[nH]c2ccccc12`, the TGI in the experiment with ACHN renal is greater than 100 µM; in the experiment on CAKI-1 renal it was greater than 100 µM; in the experiment with EKVX NSCLC, greater than 100 µM; in the experiment on IGROV1 ovarian, 31.8 µM; in the experiment on OVCAR-4 ovarian, greater than 100 µM; in the experiment on SF-539 CNS it was greater than 100 µM. Moreover, the TGI in the experiment on SK-MEL-5 melanoma and in the experiment on SK-OV-3 ovarian was greater than 100 µM throughout.

Take `C1CC[C@H]2SSC3CCCC[C@H]3SSC2C1` (some centres undefined): the TGI in the experiment on EKVX NSCLC, in the experiment on IGROV1 ovarian, with OVCAR-4 ovarian, in the experiment on SF-539 CNS, with SK-MEL-5 melanoma and with SK-OV-3 ovarian was greater than 100 µM throughout. In addition, the TGI in the experiment with SNB-75 CNS is greater than 100 µM.

In the case of `CN1CN(c2ccccc2)C2(CCN(CCC3COc4ccccc4O3)CC2)C1=O` (centres undefined), the TGI with ACHN renal was greater than 100 µM; in the experiment with CAKI-1 renal, 77.5 µM; in the experiment with EKVX NSCLC, 51.4 µM; with IGROV1 ovarian, 75.2 µM; with RXF 393 renal it was greater than 100 µM; in the experiment with SF-539 CNS, 38 µM. For the same molecule, the TGI was 28.2 µM with SK-MEL-5 melanoma, 71.1 µM in the experiment on SK-OV-3 ovarian and greater than 100 µM in the experiment with SNB-75 CNS.

For `COc1cc2c(cc1OC)C(=O)/C(=C/c1cc(OC)c(OC)c(OC)c1)C2`, the TGI with CAKI-1 renal, with IGROV1 ovarian, in the experiment with OVCAR-4 ovarian, in the experiment on RXF 393 renal, in the experiment on SK-MEL-5 melanoma and in the experiment on SK-OV-3 ovarian was greater than 100 µM each time. This molecule showed a TGI with SNB-75 CNS greater than 100 µM.

For `O=C(O)C12CCCCC1CCCC2` (centres undefined), the TGI in the experiment on ACHN renal, in the experiment on CAKI-1 renal, in the experiment with EKVX NSCLC, with IGROV1 ovarian, in the experiment with OVCAR-4 ovarian and in the experiment on SF-539 CNS was greater than 100 µM throughout. Also, the TGI in the experiment on SK-MEL-5 melanoma, in the experiment with SK-OV-3 ovarian and in the experiment with SNB-75 CNS was greater than 100 µM in each case.

For the molecule `COc1ccc(C2C3CCc4ccccc4C3=NN2S(=O)(=O)c2ccc(/C=C/C(=O)O)cc2)cc1` (centres undefined), the TGI in the experiment on ACHN renal was 14.1 µM; with CAKI-1 renal, greater than 100 µM; in the experiment on EKVX NSCLC, greater than 100 µM; in the experiment on IGROV1 ovarian it was 4.91 µM; in the experiment on OVCAR-4 ovarian, 54.1 µM; with RXF 393 renal, 31.4 µM. The results for the TGI with SF-539 CNS, in the experiment on SK-MEL-5 melanoma and with SK-OV-3 ovarian were 6.29 µM, 18.6 µM and 4.72 µM, respectively.

As to `O=C1CSC(c2c[nH]c3ccccc23)N1c1ccccc1[N+](=O)[O-]` (centres undefined), the TGI with EKVX NSCLC, in the experiment with IGROV1 ovarian, in the experiment on OVCAR-4 ovarian, in the experiment with SF-539 CNS, in the experiment on SK-MEL-5 melanoma and in the experiment on SK-OV-3 ovarian was greater than 100 µM each time.

For `Cc1nnc(N)nc1/C=C/c1c(O)ccc2ccccc12`, the TGI is 43.7 µM with ACHN renal; greater than 100 µM with CAKI-1 renal; 36 µM in the experiment with EKVX NSCLC; 32.2 µM in the experiment with IGROV1 ovarian; 61.1 µM with OVCAR-4 ovarian; 36.2 µM in the experiment with RXF 393 renal. Also, the TGI in the experiment on SK-MEL-5 melanoma is 94.4 µM; in the experiment on SK-OV-3 ovarian it was greater than 100 µM.

In the case of `O=C(CNC(c1ccccc1)(c1ccccc1)c1ccccc1)NC1CCCCC1NC(=O)CNC(c1ccccc1)(c1ccccc1)c1ccccc1` (centres undefined), the TGI in the experiment with ACHN renal is greater than 100 µM; in the experiment with CAKI-1 renal, greater than 100 µM; in the experiment on EKVX NSCLC, 47.6 µM; in the experiment on IGROV1 ovarian, greater than 100 µM; in the experiment on OVCAR-4 ovarian it was greater than 100 µM; in the experiment on SF-539 CNS it was greater than 100 µM. Besides, the TGI with SK-MEL-5 melanoma and in the experiment with SK-OV-3 ovarian was greater than 100 µM each time.

With `CCCCCC/C=C1\CCC(CN2CCOCC2)C1=O` (centres undefined), the TGI in the experiment on ACHN renal is 31.2 µM; with CAKI-1 renal it was 31.4 µM; in the experiment on EKVX NSCLC, 19.1 µM; in the experiment on IGROV1 ovarian, 36.6 µM; in the experiment with OVCAR-4 ovarian it was 38.8 µM; in the experiment on SF-539 CNS, 31.2 µM. The figures for the TGI with SK-MEL-5 melanoma, with SK-OV-3 ovarian and with SNB-75 CNS were 38.4 µM, greater than 79.4 µM and 42.3 µM, respectively.
